Legend:
Format in all cases: biochemical
[1] = target: T1, human IP6K2 (Homo sapiens, UniProt Q9UHH9); assay: IP6K enzyme inhibitory assay (ADP-Glo Kinase Assay), human IP6K2; conditions: compound concentration 0.1 μM; for inhibition at 0.1 µM: read-out: ADP-Glo method inhibitory rate (%) human IP6K2
T1 construct: human IP6K2 (1-426) gene; GST; made in house; host or cells: Sf-9 insect cells
T1 sequence (Q9UHH9 1-426): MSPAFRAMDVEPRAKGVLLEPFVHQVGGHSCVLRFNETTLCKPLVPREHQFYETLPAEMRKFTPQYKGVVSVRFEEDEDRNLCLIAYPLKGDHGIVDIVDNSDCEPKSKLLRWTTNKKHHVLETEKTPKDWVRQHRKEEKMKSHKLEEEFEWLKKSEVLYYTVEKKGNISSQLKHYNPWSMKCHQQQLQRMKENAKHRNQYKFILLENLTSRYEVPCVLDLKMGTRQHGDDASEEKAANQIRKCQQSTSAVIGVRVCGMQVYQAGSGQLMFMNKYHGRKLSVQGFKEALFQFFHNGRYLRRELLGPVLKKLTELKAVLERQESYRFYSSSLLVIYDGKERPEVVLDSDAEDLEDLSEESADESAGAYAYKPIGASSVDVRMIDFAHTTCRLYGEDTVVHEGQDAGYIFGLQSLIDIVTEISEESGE
In short: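 The inhibitory activity against human IP6K2 was measured with Promega's ADP-Glo Kinase Assay in 384 well plates. Test compound, diluted in assay buffer (20 mM HEPES (pH 7.5), 6 mM MgCl2, 0.01% Tween-20, 1 mM DTT), was added at 2 μL. Adding 2 μL of diluted enzyme started the reaction, which ran for 60 min at room temperature. Next, 3 μL ADP-Glo solution (30 min) and 6 μL Kinase-Detection solution (60 min) were added, and luminescence was read on an Envision plate reader.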

[2] = target: T2, human IP6K1 (Homo sapiens, UniProt Q92551); assay: IP6K enzyme inhibitory assay (ADP-Glo Kinase Assay), human IP6K1; conditions: compound concentration 0.1 μM; for inhibition at 0.1 µM: read-out: ADP-Glo method inhibitory rate (%) human IP6K1
T2 construct: human IP6K1 (1-441) gene; GST; made in house; host or cells: Sf-9 insect cells
In short: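 Inhibition of human IP6K1 was determined with Promega's ADP-Glo Kinase Assay in 384 well plates. Test compound diluted in assay buffer (20 mM HEPES (pH 7.5), 6 mM MgCl2, 0.01% Tween-20, 1 mM DTT) was added at 2 μL, then 2 μL of enzyme started the reaction for 60 min at room temperature. Next came 3 μL ADP-Glo solution for 30 min and 6 μL Kinase-Detection solution for 60 min. Luminescence was read on an Envision plate reader.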

[3] = target: T3, human IP6K3 (Homo sapiens, UniProt Q96PC2); assay: IP6K enzyme inhibitory assay (ADP-Glo Kinase Assay), human IP6K3; conditions: compound concentration 0.1 μM; for inhibition at 0.1 µM: read-out: ADP-Glo method inhibitory rate (%) human IP6K3
T3 construct: human IP6K3 (1-410) gene; made in house; host or cells: BL21 (DE3) Escherichia coli
T3 sequence (Q96PC2 1-410): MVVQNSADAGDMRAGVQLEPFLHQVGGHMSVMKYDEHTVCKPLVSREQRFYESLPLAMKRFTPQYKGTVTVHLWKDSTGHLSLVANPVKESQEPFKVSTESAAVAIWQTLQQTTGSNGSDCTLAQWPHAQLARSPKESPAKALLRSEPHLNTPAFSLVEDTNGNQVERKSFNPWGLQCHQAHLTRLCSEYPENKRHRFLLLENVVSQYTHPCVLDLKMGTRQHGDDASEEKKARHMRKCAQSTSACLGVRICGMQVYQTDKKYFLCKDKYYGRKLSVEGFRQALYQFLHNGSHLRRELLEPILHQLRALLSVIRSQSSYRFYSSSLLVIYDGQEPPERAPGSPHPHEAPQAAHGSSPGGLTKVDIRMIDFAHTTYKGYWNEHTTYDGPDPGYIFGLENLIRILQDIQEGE
In short: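 Recombinant human IP6K (IP6K3 residues 1-410, E. coli, Ni-NTA purified) incubated with compound in 20 mM HEPES pH 7.5, 6 mM MgCl2, 0.01% Tween-20, 1 mM DTT for 60 min at room temperature. ADP formed read as luminescence by ADP-Glo.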

T2 sequence (Q92551 whole entry): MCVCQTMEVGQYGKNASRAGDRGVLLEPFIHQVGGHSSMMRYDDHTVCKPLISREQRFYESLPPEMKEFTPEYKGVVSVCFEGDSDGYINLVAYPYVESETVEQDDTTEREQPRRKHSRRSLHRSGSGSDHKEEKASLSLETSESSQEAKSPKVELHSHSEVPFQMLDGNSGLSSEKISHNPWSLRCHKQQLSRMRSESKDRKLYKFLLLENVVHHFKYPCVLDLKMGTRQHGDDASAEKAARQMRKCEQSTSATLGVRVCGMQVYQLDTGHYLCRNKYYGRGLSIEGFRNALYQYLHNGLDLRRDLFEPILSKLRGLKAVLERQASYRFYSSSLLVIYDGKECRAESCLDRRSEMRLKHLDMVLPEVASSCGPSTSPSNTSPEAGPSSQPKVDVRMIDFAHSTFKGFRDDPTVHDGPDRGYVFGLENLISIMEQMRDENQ

| SMILES | inhibition at 0.1 µM [1] [%] | inhibition at 0.1 µM [2] [%] | inhibition at 0.1 µM [3] [%] | ADP-Glo method inhibitory rate (%) human IP6K2 [1] [%] | ADP-Glo method inhibitory rate (%) human IP6K1 [2] [%] | ADP-Glo method inhibitory rate (%) human IP6K3 [3] [%] |
| --- | --- | --- | --- | --- | --- | --- |
| Cc1cc(C)nc(O[C@H]2CC[C@@]3(CC2)C(=O)Nc2ccc(C(=O)O)cc23)n1 [Example 38, (1r,4r)-4-((4,6-dimethylpyrimidin-2-yl)oxy)-2′-oxo-1′,2′-dihydrospiro[cyclohexane-1,3′-indole]-5′-carboxylic acid] | 47 | 55 | 86 | – | – | – |
| O=C(O)c1ccc2c(n1)[C@]1(CC[C@@H](Oc3ncc(C4CC4)cc3C(F)(F)F)CC1)C(=O)N2 [Example 109, (1r,4r)-4-((5-cyclopropyl-3-(trifluoromethyl)pyridin-2-yl)oxy)-2′-oxo-1′,2′-dihydrospiro[cyclohexane-1,3′-pyrrolo[3,2-b]pyridine]-5′-carboxylic acid] | 95 | 94 | 95 | – | – | – |
| O=C(O)c1ccc2c(c1)[C@]1(CC[C@@H](Oc3cccc(F)c3F)CC1)C(=O)N2 [Example 59, (1r,4r)-4-(2,3-difluorophenoxy)-2′-oxo-1′,2′-dihydrospiro[cyclohexane-1,3′-indole]-5′-carboxylic acid] | 86 | 87 | 97 | – | – | – |
| O=C(O)c1ccc2c(c1)[C@]1(CC[C@H](Oc3ncc(Cl)cc3F)CC1)C(=O)N2 [Example 87, (1s,4s)-4-((5-chloro-3-fluoropyridin-2-yl)oxy)-2′-oxo-1′,2′-dihydrospiro[cyclohexane-1,3′-indole]-5′-carboxylic acid] | 102 | 107 | 102 | – | – | – |
| O=C(O)c1ccc2c(c1)[C@]1(CC[C@@H](Oc3ccc(F)c(C(F)(F)F)c3)CC1)C(=O)N2 [Example 79, (1r,4r)-4-(4-fluoro-3-(trifluoromethyl)phenoxy)-2′-oxo-1′,2′-dihydrospiro[cyclohexane-1,3′-indole]-5′-carboxylic acid] | 89 | 87 | 97 | – | – | – |
| Cc1cc(O[C@H]2CC[C@@]3(CC2)C(=O)Nc2ccc(C(=O)O)cc23)nc(C)n1 [Example 40, (1r,4r)-4-((2,6-dimethylpyrimidin-4-yl)oxy)-2′-oxo-1′,2′-dihydrospiro[cyclohexane-1,3′-indole]-5′-carboxylic acid] | 18 | 14 | 49 | – | – | – |
| Cc1cc(C(F)(F)F)cnc1O[C@H]1CC[C@@]2(CC1)C(=O)Nc1ccc(C(=O)O)nc12 [Example 112, (1r,4r)-4-((3-methyl-5-(trifluoromethyl)pyridin-2-yl)oxy)-2′-oxo-1′,2′-dihydrospiro[cyclohexane-1,3′-pyrrolo[3,2-b]pyridine]-5′-carboxylic acid] | 90 | 90 | 97 | – | – | – |
| O=C(O)c1ccc2c(n1)[C@]1(CC[C@H](Oc3ncc(C(F)(F)F)cc3Cl)CC1)C(=O)N2 [Example 115, (1s,4s)-4-((3-chloro-5-(trifluoromethyl)pyridin-2-yl)oxy)-2′-oxo-1′,2′-dihydrospiro[cyclohexane-1,3′-pyrrolo[3,2-b]pyridine]-5′-carboxylic acid] | 99 | 97 | 99 | – | – | – |
| Cc1ncccc1O[C@H]1CC[C@@]2(CC1)C(=O)Nc1ccc(C(=O)O)cc12 [Example 32, (1r,4r)-4-((2-methylpyridin-3-yl)oxy)-2′-oxo-1′,2′-dihydrospiro[cyclohexane-1,3′-indole]-5′-carboxylic acid] | 67 | 63 | 88 | – | – | – |
| O=C(O)c1ccc2c(c1)[C@]1(CC[C@@H](Oc3ccc(Cl)c(F)c3)CC1)C(=O)N2 [Example 69, (1r,4r)-4-(4-chloro-3-fluorophenoxy)-2′-oxo-1′,2′-dihydrospiro[cyclohexane-1,3′-indole]-5′-carboxylic acid] | 100 | 100 | 96 | – | – | – |

Next, values leading:

| inhibition at 0.1 µM [1] [%] | inhibition at 0.1 µM [2] [%] | inhibition at 0.1 µM [3] [%] | ADP-Glo method inhibitory rate (%) human IP6K2 [1] [%] | ADP-Glo method inhibitory rate (%) human IP6K1 [2] [%] | ADP-Glo method inhibitory rate (%) human IP6K3 [3] [%] | SMILES |
| --- | --- | --- | --- | --- | --- | --- |
| 91 | 86 | 97 | – | – | – | Cc1cc(C)cc(O[C@H]2CC[C@@]3(CC2)C(=O)Nc2ccc(C(=O)O)cc23)c1 [Example 48, (1r,4r)-4-(3,5-dimethylphenoxy)-2′-oxo-1′,2′-dihydrospiro[cyclohexane-1,3′-indole]-5′-carboxylic acid] |
| 72 | 72 | 90 | – | – | – | O=C(O)c1ccc2c(c1)[C@]1(CC[C@@H](Oc3ccc(F)cn3)CC1)C(=O)N2 [Example 22, (1r,4r)-4-((5-fluoropyridin-2-yl)oxy)-2′-oxo-1′,2′-dihydrospiro[cyclohexane-1,3′-indole]-5′-carboxylic acid] |
| 60 | 69 | 79 | – | – | – | O=C(O)c1ccc2c(n1)[C@]1(CC[C@@H](Oc3ccc(F)cc3F)CC1)C(=O)N2 [Example 91, (1r,4r)-4-(2,4-difluorophenoxy)-2′-oxo-1′,2′-dihydrospiro[cyclohexane-1,3′-pyrrolo[3,2-b]pyridine]-5′-carboxylic acid] |
| 97 | 99 | 100 | – | – | – | O=C(O)c1ccc2c(c1)[C@]1(CC[C@@H](Oc3ccc(F)cc3F)CC1)C(=O)N2 [Example 57, (1r,4r)-4-(2,4-difluorophenoxy)-2′-oxo-1′,2′-dihydrospiro[cyclohexane-1,3′-indole]-5′-carboxylic acid] |
| 74 | 80 | 95 | – | – | – | Cc1nc(O[C@H]2CC[C@@]3(CC2)C(=O)Nc2ccc(C(=O)O)cc23)nc(C)c1Cl [Example 39, (1r,4r)-4-((5-chloro-4,6-dimethylpyrimidin-2-yl)oxy)-2′-oxo-1′,2′-dihydrospiro[cyclohexane-1,3′-indole]-5′-carboxylic acid] |
| 97 | 101 | 97 | – | – | – | O=C(O)c1ccc2c(n1)[C@]1(CC[C@H](Oc3ccc(Cl)cc3)CC1)C(=O)N2 [Example 88, (1s,4s)-4-(4-chlorophenoxy)-2′-oxo-1′,2′-dihydrospiro[cyclohexane-1,3′-pyrrolo[3,2-b]pyridine]-5′-carboxylic acid] |
| 83 | 72 | 90 | – | – | – | O=C(O)c1ccc2c(c1)[C@]1(CC[C@@H](Oc3cc(F)cc(F)c3)CC1)C(=O)N2 [Example 58, (1r,4r)-4-(3,5-difluorophenoxy)-2′-oxo-1′,2′-dihydrospiro[cyclohexane-1,3′-indole]-5′-carboxylic acid] |
| – | – | – | 96 | 99 | 99 | Cc1ccc(O[C@H]2CC[C@@]3(CC2)C(=O)Nc2ccc(C(=O)O)cc23)c(C)c1 [Example 47, (1r,4r)-4-(2,4-dimethylphenoxy)-2′-oxo-1′,2′-dihydrospiro[cyclohexane-1,3′-indole]-5′-carboxylic acid] |
| 100 | 104 | 98 | – | – | – | O=C(O)c1ccc2c(n1)[C@]1(CC[C@H](Oc3ccc(Cl)cc3Cl)CC1)C(=O)N2 [Example 101, (1s,4s)-4-(2,4-dichlorophenoxy)-2′-oxo-1′,2′-dihydrospiro[cyclohexane-1,3′-pyrrolo[3,2-b]pyridine]-5′-carboxylic acid] |

Source: US10968178B2, “IP6K inhibitors” (TAKEDA PHARMACEUTICAL COMPANY LIMITED, priority 2017, dated 2021)
